Source: PubChem BioAssay (NCI)
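Protocol summary: plate cells (96-well), add compound at 5 concentrations, incubate 48 h, interpolate endpoints linearly. TGI: concentration producing complete growth inhibition.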

How the values were obtained:
Experiment in all cases: DTP human tumour cell line panel, 48 h
[1] = test system: SR leukemia
[2] = test system: M19-MEL melanoma
[3] = test system: U251 CNS
[4] = test system: SNB-19 CNS
[5] = test system: UACC-257 melanoma
[6] = test system: DLD-1 colon
[7] = test system: SK-OV-3 ovarian
[8] = test system: A549 NSCLC
[9] = test system: OVCAR-3 ovarian
[10] = test system: HCT-15 colon
[11] = test system: RPMI-8226 leukemia
[12] = test system: MALME-3M melanoma
[13] = test system: M14 melanoma
[14] = test system: KM12 colon
[15] = test system: KM20L2 colon
[16] = test system: SNB-75 CNS
[17] = test system: HCT-116 colon
[18] = test system: SK-MEL-5 melanoma
[19] = test system: SK-MEL-28 melanoma
[20] = test system: HOP-62 NSCLC
[21] = test system: SF-268 CNS
[22] = test system: UO-31 renal
[23] = test system: CCRF-CEM leukemia
[24] = test system: 786-0 renal
[25] = test system: LXFL 529 NSCLC
[26] = test system: LOX IMVI melanoma
[27] = test system: SF-539 CNS
[28] = test system: IGROV1 ovarian
[29] = test system: HOP-18 NSCLC
[30] = test system: NCI-H460 lung
[31] = test system: NCI-H522 lung
[32] = test system: OVCAR-5 ovarian
[33] = test system: EKVX NSCLC
[34] = test system: SN12C renal
[35] = test system: NCI-H23 lung
[36] = test system: UACC-62 melanoma
[37] = test system: HCC-2998 colon
[38] = test system: COLO 205 colon
[39] = test system: HT29 colon
[40] = test system: HOP-92 NSCLC
[41] = test system: A498 renal
[42] = test system: SF-295 CNS
[43] = test system: SK-MEL-2 melanoma
[44] = test system: TK-10 renal
[45] = test system: SW-620 colon
[46] = test system: OVCAR-8 ovarian
[47] = test system: CAKI-1 renal
[48] = test system: SNB-78 CNS
[49] = test system: HL-60(TB) leukemia
[50] = test system: DMS 273 small cell lung
[51] = test system: ACHN renal
[52] = test system: K-562 leukemia
[53] = test system: MDA-MB-231 breast
[54] = test system: MCF7 breast
[55] = test system: MDA-N
[56] = test system: T-47D breast
[57] = test system: MDA-MB-435
[58] = test system: OVCAR-4 ovarian
[59] = test system: HS 578T breast
[60] = test system: BT-549 breast
[61] = test system: DU-145 prostate
[62] = test system: NCI-H226 lung
[63] = test system: PC-3 prostate
[64] = test system: NCI/ADR-RES ovarian
[65] = test system: RXF 393 renal
[66] = test system: MOLT-4 leukemia

Measured: TGI

COc1ccc(N2C(=O)C(N3C(=O)C=CC3=O)C2C=O)cc1 (stereo not drawn)
not listed: [53] | [54] | [55] | [56] | [57] | [58] | [59] | [60] | [61] | [62] | [63] | [64] | [65] | [66]
> 100 µM: all other assays above

Cn1c(=O)c2[nH]c(CCC(=O)O)nc2n(C)c1=O
not listed: [2] | [6] | [15] | [25] | [29] | [48] | [50] | [66]
> 100 µM: all other assays above

COc1ccc(C(C)NNC(=O)c2ccncc2)cc1F (stereo not drawn)
not listed: [2] | [6] | [15] | [25] | [29] | [31] | [48] | [50]
> 100 µM: all other assays above
